Assay results from ChEMBL document CHEMBL1123417, “New structure-activity relationships of the quinolone antibacterials using the target enzyme. The development and application of a DNA gyrase assay” (J Med Chem, 1986).
Converted amounts (≈) assume the structure as drawn.

Key:
Escherichia coli [1] = test: Antibacterial activity against Escherichia coli (vogel)
Pseudomonas aeruginosa = test: Antibacterial activity against Pseudomonas aeruginosa (UI-18)
Staphylococcus aureus = test: Antibacterial activity against Staphylococcus aureus (H228)
Klebsiella pneumoniae = test: Antibacterial activity against Klebsiella pneumonia (MGH-2)
Escherichia coli [2] = test: Antibacterial activity against Escherichia coli (H560)
[3] = molecular target: DNA gyrase (Escherichia coli) (UniProt P0AES6+P0AES4)
Streptococcus pneumoniae = test: Antibacterial activity against Streptococcus pneumoniae (SV-1)

Structure (SMILES)	MIC (Escherichia coli [1]) [µg/mL]	MIC (Pseudomonas aeruginosa) [µg/mL]	MIC (Staphylococcus aureus) [µg/mL]	MIC (Klebsiella pneumoniae) [µg/mL]	MIC (Escherichia coli [2]) [µg/mL]	gyrase cleavage conc [3] [µg/mL]	MIC (Streptococcus pneumoniae) [µg/mL]
CCn1cc(C(=O)O)c(=O)c2ccc(N3CCNCC3)cc21	6.3 (≈ 20.9 µM)	25 (≈ 83 µM)	> 50	6.3 (≈ 20.9 µM)	6.3 (≈ 20.9 µM)	18	50 (≈ 166 µM)
CCn1cc(C(=O)O)c(=O)c2cc(F)c(N3CCSCC3)nc21	1.6 (≈ 4.74 µM)	6.3 (≈ 18.7 µM)	0.2 (≈ 0.593 µM)	3.1 (≈ 9.19 µM)	1.6 (≈ 4.74 µM)	18	50 (≈ 148 µM)
CCOC(=O)N1CCN(c2nc3c(cc2F)c(=O)c(C(=O)O)cn3CC)CC1	25 (≈ 63.7 µM)	200 (≈ 510 µM)	3.1 (≈ 7.9 µM)	50 (≈ 127 µM)	50 (≈ 127 µM)	18	100 (≈ 255 µM)
CCn1cc(C(=O)O)c(=O)c2ccc(N3CCN(CC#N)CC3)cc21	50 (≈ 147 µM)	100 (≈ 294 µM)	25 (≈ 73.4 µM)	> 100	50 (≈ 147 µM)	18	> 100
CCn1cc(C(=O)O)c(=O)c2c(N)nc(N3CCN(C)CC3)nc21	1.6 (≈ 4.81 µM)	100 (≈ 301 µM)	100 (≈ 301 µM)	6.3 (≈ 19 µM)	3.1 (≈ 9.33 µM)	100	100 (≈ 301 µM)
CCn1cc(C(=O)O)c(=O)c2cc([N+](=O)[O-])ccc21	12.5 (≈ 47.7 µM)	> 100	> 100	12.5 (≈ 47.7 µM)	50 (≈ 191 µM)	> 100	100 (≈ 381 µM)
CCn1cc(C(=O)O)c(=O)c2cc(F)c(N3CCN(C(C)=N)CC3)cc21	0.8 (≈ 2.22 µM)	1.6 (≈ 4.44 µM)	6.3 (≈ 17.5 µM)	1.6 (≈ 4.44 µM)	0.2 (≈ 0.555 µM)	2.5	12.5 (≈ 34.7 µM)
CCn1cc(C(=O)O)c(=O)c2cc(F)c(N3CCSC3)cc21	0.2 (≈ 0.62 µM)	3.1 (≈ 9.62 µM)	0.2 (≈ 0.62 µM)	0.4 (≈ 1.24 µM)	0.2 (≈ 0.62 µM)	5	12.5 (≈ 38.8 µM)
CCn1cc(C(=O)O)c(=O)c2cc(F)c(Cl)cc21	0.8 (≈ 2.97 µM)	50 (≈ 185 µM)	3.1 (≈ 11.5 µM)	1.6 (≈ 5.93 µM)	1.6 (≈ 5.93 µM)	38	100 (≈ 371 µM)
CCn1cc(C(=O)O)c(=O)c2ccc(/C=C/N3CCN(C)CC3)nc21	> 100	> 100	> 100	> 100	> 100	> 100	> 100
CCn1cc(C(=O)O)c(=O)c2cc(F)c(N3CCN(CCN)CC3)cc21	25 (≈ 69 µM)	50 (≈ 138 µM)	12.5 (≈ 34.5 µM)	50 (≈ 138 µM)	25 (≈ 69 µM)	10	50 (≈ 138 µM)
CCn1cc(C(=O)O)c(=O)c2cc(F)c(N3CCNCC3)cc21	–	–	–	–	–	1	–
CCn1cc(C(=O)O)c(=O)c2cc(F)c(NCCN)nc21	12.5 (≈ 42.5 µM)	50 (≈ 170 µM)	> 100	25 (≈ 85 µM)	25 (≈ 85 µM)	50	> 100
CCn1cc(C(=O)O)c(=O)c2ccc(N3CCNCC3)nc21	6.3 (≈ 20.8 µM)	12.5 (≈ 41.3 µM)	50 (≈ 165 µM)	12.5 (≈ 41.3 µM)	3.1 (≈ 10.3 µM)	75	50 (≈ 165 µM)
CCn1cc(C(=O)O)c(=O)c2cc(F)c(C)cc21	0.2 (≈ 0.802 µM)	12.5 (≈ 50.2 µM)	1.6 (≈ 6.42 µM)	0.2 (≈ 0.802 µM)	0.4 (≈ 1.6 µM)	25	100 (≈ 401 µM)
CCn1cc(C(=O)O)c(=O)c2c(N)nc(N3CCCC3)nc21	100 (≈ 330 µM)	> 100	100 (≈ 330 µM)	> 100	100 (≈ 330 µM)	100	25 (≈ 82.4 µM)

Structure (SMILES)	MIC (Escherichia coli [1]) [µg/mL]	MIC (Pseudomonas aeruginosa) [µg/mL]	MIC (Staphylococcus aureus) [µg/mL]	MIC (Klebsiella pneumoniae) [µg/mL]	MIC (Escherichia coli [2]) [µg/mL]	gyrase cleavage conc [3] [µg/mL]	MIC (Streptococcus pneumoniae) [µg/mL]
CCn1cc(C(=O)O)c(=O)c2cc(F)c(N3CCN(C(C)=N)CC3)nc21	3.1 (≈ 8.58 µM)	25 (≈ 69.2 µM)	50 (≈ 138 µM)	6.3 (≈ 17.4 µM)	0.8 (≈ 2.21 µM)	6.3	50 (≈ 138 µM)
CCn1cc(C(=O)O)c(=O)cc1C	> 100	> 100	> 100	> 100	> 100	100	> 100
CC1COc2c(N3CCN(C)CC3)c(F)cc3c(=O)c(C(=O)O)cn1c23 (centres undefined)	–	–	–	–	–	5	–
CCn1cc(C(=O)O)c(=O)cc1/C=C/c1ccsc1	25 (≈ 90.8 µM)	> 100	> 100	> 100	50 (≈ 182 µM)	100	> 100
CCn1cc(C(=O)O)c(=O)c2cc(F)c(N3CCN(C)CC3)c(F)c21	0.2 (≈ 0.569 µM)	0.8 (≈ 2.28 µM)	0.4 (≈ 1.14 µM)	0.4 (≈ 1.14 µM)	0.1 (≈ 0.285 µM)	2.5	3.1 (≈ 8.82 µM)
CCn1cc(C(=O)O)c(=O)cc1-c1ccc(OC)cc1	50 (≈ 183 µM)	> 100	> 100	50 (≈ 183 µM)	> 100	100	> 100
CCn1cc(C(=O)O)c(=O)c2c(N)nc(N3CCNCC3)nc21	6.3 (≈ 19.8 µM)	25 (≈ 78.5 µM)	50 (≈ 157 µM)	25 (≈ 78.5 µM)	3.1 (≈ 9.74 µM)	100	50 (≈ 157 µM)
CCn1cc(C(=O)O)c(=O)c2cc(F)c(F)c(F)c21	1.6 (≈ 5.9 µM)	> 100	50 (≈ 184 µM)	6.3 (≈ 23.2 µM)	6.3 (≈ 23.2 µM)	38	> 100
CCn1cc(C(=O)O)c(=O)c2cc(F)c(N3CCSCC3)cc21	0.1 (≈ 0.297 µM)	0.8 (≈ 2.38 µM)	0.006 (≈ 0.0178 µM)	0.2 (≈ 0.595 µM)	0.1 (≈ 0.297 µM)	5	12.5 (≈ 37.2 µM)
CCn1cc(C(=O)O)c(=O)c2cc(F)c(N3CCN(CCCN(C)C)CC3)cc21	6.3 (≈ 15.6 µM)	12.5 (≈ 30.9 µM)	12.5 (≈ 30.9 µM)	6.3 (≈ 15.6 µM)	3.1 (≈ 7.66 µM)	50	25 (≈ 61.8 µM)
CCn1cc(C(=O)O)c(=O)c2cc([N+](=O)[O-])c(C)nc21	25 (≈ 90.2 µM)	> 100	25 (≈ 90.2 µM)	50 (≈ 180 µM)	50 (≈ 180 µM)	50	> 100
CCn1cc(C(=O)O)c(=O)c2cc(F)c(/C=N/O)nc21	6.3 (≈ 22.6 µM)	100 (≈ 358 µM)	100 (≈ 358 µM)	12.5 (≈ 44.8 µM)	> 100	50	100 (≈ 358 µM)
CCn1cc(C(=O)O)c(=O)c2cc(F)c(C)nc21	3.1 (≈ 12.4 µM)	50 (≈ 200 µM)	25 (≈ 99.9 µM)	6.3 (≈ 25.2 µM)	3.1 (≈ 12.4 µM)	25	> 100
CCn1cc(C(=O)O)c(=O)c2cc(F)c(N3CCN(CC#N)CC3)cc21	0.4 (≈ 1.12 µM)	6.3 (≈ 17.6 µM)	1.6 (≈ 4.46 µM)	0.8 (≈ 2.23 µM)	0.8 (≈ 2.23 µM)	10	6.3 (≈ 17.6 µM)
CCn1cc(C(=O)O)c(=O)c2ccc(C)nc21	–	–	–	–	–	50	–
